ChEMBL document CHEMBL1140860, “Synthesis and evaluation of dihydroartemisinin and dihydroartemisitene acetal dimers showing anticancer and antiprotozoal activity” (Bioorg Med Chem, 2009)

Assays:
RXF 393 = assay: Growth inhibition of human RXF393 cells after 48 hrs by sulforhodamine B assay; format: functional; settings: RXF 393, 48 h
OVCAR-5 = assay: Growth inhibition of human OVCAR5 cells after 48 hrs by sulforhodamine B assay; format: functional; settings: OVCAR-5, 48 h
UO-31 = assay: Growth inhibition of human UO31 cells after 48 hrs by sulforhodamine B assay; format: functional; settings: UO-31, 48 h
NCI/ADR-RES = assay: Growth inhibition of human NCI/ADR-RES cells after 48 hrs by sulforhodamine B assay; format: functional
Plasmodium falciparum [1] = assay: Antimalarial activity after 72 hrs against chloroquine-sensitive Plasmodium falciparum D6 infected in erythrocytes by LDH assay; format: functional, organism-based; settings: D6, 72 h
Plasmodium falciparum [2] = assay: Antimalarial activity after 72 hrs against chloroquine-resistant Plasmodium falciparum W2 infected erythrocytes by LDH assay; format: functional, organism-based; settings: W2, 72 h
SF-295 = assay: Growth inhibition of human SF295 cells after 48 hrs by sulforhodamine B assay; format: functional; settings: SF-295, 48 h
HT-29 = assay: Growth inhibition of human HT-29 cells after 48 hrs by sulforhodamine B assay; format: functional; settings: HT-29, 48 h
MDA-MB-231 = assay: Growth inhibition of human MDA-MB-231 cells after 48 hrs by sulforhodamine B assay; format: functional; settings: MDA-MB-231, 48 h
MCF7 = assay: Growth inhibition of human MCF7 cells after 48 hrs by sulforhodamine B assay; format: functional; settings: MCF7, 48 h
HCT-15 = assay: Growth inhibition of human HCT15 cells after 48 hrs by sulforhodamine B assay; format: functional; settings: HCT-15, 48 h
NCI-H23 = assay: Growth inhibition of human NCI-H23 cells after 48 hrs by sulforhodamine B assay; format: functional; settings: NCI-H23, 48 h
K562 = assay: Growth inhibition of human K562 cells after 48 hrs by sulforhodamine B assay; format: functional; settings: K562, 48 h
CAKI-1 = assay: Growth inhibition of human Caki1 cells after 48 hrs by sulforhodamine B assay; format: functional; settings: CAKI-1, 48 h
SK-MEL-5 = assay: Growth inhibition of human SK-MEL-5 cells after 48 hrs by sulforhodamine B assay; format: functional; settings: SK-MEL-5, 48 h
786-0 = assay: Growth inhibition of human 786-0 cells after 48 hrs by sulforhodamine B assay; format: functional; settings: 786-0, 48 h
A549 = assay: Growth inhibition of human A549 cells after 48 hrs by sulforhodamine B assay; format: functional; settings: A549, 48 h
[3] = Growth inhibition of human […] cells after 48 hrs by sulforhodamine B assay; format: functional
KM12 = assay: Growth inhibition of human KM12 cells after 48 hrs by sulforhodamine B assay; format: functional; settings: KM12, 48 h
SK-OV-3 = assay: Growth inhibition of human SKOV3 cells after 48 hrs by sulforhodamine B assay; format: functional; settings: SK-OV-3, 48 h
CCRF-CEM = assay: Growth inhibition of human CCRF-CEM cells after 48 hrs by sulforhodamine B assay; format: functional
NCI-H322M = assay: Growth inhibition of human NCI-H322M cells after 48 hrs by sulforhodamine B assay; format: functional
SK-MEL-2 = assay: Growth inhibition of human SK-MEL-2 cells after 48 hrs by sulforhodamine B assay; format: functional; settings: SK-MEL-2, 48 h
SW-620 = assay: Growth inhibition of human SW620 cells after 48 hrs by sulforhodamine B assay; format: functional; settings: SW-620, 48 h
SK-MEL-28 = assay: Growth inhibition of human SK-MEL-28 cells after 48 hrs by sulforhodamine B assay; format: functional; settings: SK-MEL-28, 48 h
UACC-257 = assay: Growth inhibition of human UACC257 cells after 48 hrs by sulforhodamine B assay; format: functional; settings: UACC-257, 48 h
NCI-H226 = assay: Growth inhibition of human NCI-H226 cells after 48 hrs by sulforhodamine B assay; format: functional; settings: NCI-H226, 48 h
ACHN = assay: Growth inhibition of human ACHN cells after 48 hrs by sulforhodamine B assay; format: functional
NCI-H522 = assay: Growth inhibition of human NCI-H522 cells after 48 hrs by sulforhodamine B assay; format: functional; settings: NCI-H522, 48 h
[4] = Growth inhibition of human Hs 578T cells after 48 hrs by sulforhodamine B assay; format: functional
SN12C = assay: Growth inhibition of human SN12C cells after 48 hrs by sulforhodamine B assay; format: functional
PC-3 = assay: Growth inhibition of human PC3 cells after 48 hrs by sulforhodamine B assay; format: functional; settings: PC-3, 48 h
COLO 205 = assay: Growth inhibition of human COLO205 cells after 48 hrs by sulforhodamine B assay; format: functional; settings: COLO 205, 48 h
HOP-62 = assay: Growth inhibition of human HOP62 cells after 48 hrs by sulforhodamine B assay; format: functional; settings: HOP-62, 48 h
TK-10 = assay: Growth inhibition of human TK10 cells after 48 hrs by sulforhodamine B assay; format: functional; settings: TK-10, 48 h
NCI-H460 = assay: Growth inhibition of human NCI-H460 cells after 48 hrs by sulforhodamine B assay; format: functional; settings: NCI-H460, 48 h
OVCAR-4 = assay: Growth inhibition of human OVCAR4 cells after 48 hrs by sulforhodamine B assay; format: functional; settings: OVCAR-4, 48 h
LOX IMVI = assay: Growth inhibition of human LOXIMVI cells after 48 hrs by sulforhodamine B assay; format: functional
T47D = assay: Growth inhibition of human T47D cells after 48 hrs by sulforhodamine B assay; format: functional
HL-60 = assay: Growth inhibition of human HL-60(TB) cells after 48 hrs by sulforhodamine B assay; format: functional; settings: HL-60, 48 h
HCT-116 = assay: Growth inhibition of human HCT116 cells after 48 hrs by sulforhodamine B assay; format: functional; settings: HCT-116, 48 h
Malme-3M = assay: Growth inhibition of human MALME-3M cells after 48 hrs by sulforhodamine B assay; format: functional
MDA-MB-435 = assay: Growth inhibition of human MDA-MB-435 cells after 48 hrs by sulforhodamine B assay; format: functional; settings: MDA-MB-435, 48 h
M14 = assay: Growth inhibition of human M14 cells after 48 hrs by sulforhodamine B assay; format: functional; settings: M14, 48 h

Q: Which GI50 (RXF 393) does the source give for C[C@H]1[C@@H](OCC(CO[C@H]2O[C@@H]3O[C@@]4(C)CC[C@H]5[C@H](C)CC[C@@H]([C@H]2C)[C@@]35OO4)OC(=O)CCC(=O)O)O[C@@H]2O[C@@]3(C)CC[C@H]4[C@H](C)CC[C@@H]1[C@@]24OO3 (some centres undefined) here?
A: < 10 nM

Q: And the GI50 (OVCAR-5)?
A: < 10 nM

Q: What about the GI50 (UO-31) of the same molecule?
A: 355 nM

Q: What about the GI50 (NCI/ADR-RES) of the same molecule?
A: 207 nM

Q: What about the IC50 (Plasmodium falciparum [1]) of the same molecule?
A: 1400 nM

Q: What about the IC50 (Plasmodium falciparum [2]) of the same molecule?
A: 2100 nM

Q: What about the GI50 (SF-295) of the same molecule?
A: 34 nM

Q: And the GI50 (HT-29)?
A: < 10 nM

Q: What about the GI50 (MDA-MB-231) of the same molecule?
A: 345 nM

Q: And the GI50 (MCF7)?
A: < 10 nM

Q: And the GI50 (HCT-15)?
A: < 10 nM

Q: What about the GI50 (NCI-H23) of the same molecule?
A: 10 nM

Q: And the GI50 (K562)?
A: 230 nM

Q: And the GI50 (CAKI-1)?
A: 44 nM

Q: And the GI50 (SK-MEL-5)?
A: 147 nM

Q: What about the GI50 (786-0) of the same molecule?
A: 23 nM

Q: And the GI50 (A549)?
A: 69 nM

Q: And the GI50 [3]?
A: < 10 nM

Q: And the GI50 (KM12)?
A: < 10 nM

Q: And the GI50 (SK-OV-3)?
A: 27200 nM

Q: What about the GI50 (CCRF-CEM) of the same molecule?
A: 78 nM

Q: What about the GI50 (NCI-H322M) of the same molecule?
A: 10200 nM

Q: And the GI50 (SK-MEL-2)?
A: 5200 nM

Q: What about the GI50 (SW-620) of the same molecule?
A: 29 nM

Q: And the GI50 (SK-MEL-28)?
A: 8380 nM

Q: And the GI50 (UACC-257)?
A: 46 nM

Q: What about the GI50 (NCI-H226) of the same molecule?
A: 48 nM

Q: What about the GI50 (ACHN) of the same molecule?
A: 126 nM

Q: And the GI50 (NCI-H522)?
A: 63 nM

Q: What about the GI50 [4] of the same molecule?
A: 186 nM

Q: And the GI50 (SN12C)?
A: 16 nM

Q: What about the GI50 (PC-3) of the same molecule?
A: < 10 nM

Q: And the GI50 (COLO 205)?
A: < 10 nM

Q: What about the GI50 (HOP-62) of the same molecule?
A: 86 nM

Q: What about the GI50 (TK-10) of the same molecule?
A: 211 nM

Q: What about the GI50 (NCI-H460) of the same molecule?
A: 33 nM

Q: What about the GI50 (OVCAR-4) of the same molecule?
A: 58 nM

Q: And the GI50 (LOX IMVI)?
A: < 10 nM

Q: And the GI50 (T47D)?
A: < 10 nM

Q: And the GI50 (HL-60)?
A: 11 nM

Q: What about the GI50 (HCT-116) of the same molecule?
A: < 10 nM

Q: And the GI50 (Malme-3M)?
A: 4050 nM

Q: And the GI50 (MDA-MB-435)?
A: 13 nM

Q: What about the GI50 (M14) of the same molecule?
A: < 10 nM
